This note sets out measurements from ChEMBL document CHEMBL5120777, “Incorporating Selenium into Heterocycles and Natural Products─From Chemical Properties to Pharmacological Activities” (J Med Chem, 2022).

What all share (format): functional, cell-based
One assay relates to SK-OV-3. The assay is described as follows: Antiproliferative activity against human SK-OV-3 cells assessed as inhibition of cell growth incubated for 72 hrs by MTT assay. The note with it: SK-OV-3, 72 h. For orientation: Tetrazolium dyes change colour on reduction, which living cells bring about.
The next assay relates to T47D. The assay is described as follows: Antiproliferative activity against human T47D cells assessed as inhibition of cell growth incubated for 72 hrs by MTT assay.
The next assay deals with PC-3. The assay is described as follows: Antiproliferative activity against human PC-3 cells assessed as inhibition of cell growth incubated for 72 hrs by MTT assay. As to conditions: PC-3, 72 h.

A word on the IC50: it is the point on the concentration scale where inhibition reaches its midpoint.

On to `CC(=O)O[C@H]1CC[C@@]2(C)C(=CC[C@@H]3[C@@H]2CC[C@]2(C)C(c4cccnc4)=CC[C@@H]32)C1` [ABIRATERONE ACETATE], for which the IC50 with SK-OV-3 is 51.5 µM; in the assay on T47D it was 34.7 µM; in the assay on PC-3, 37.6 µM.
